Data: patent US4542137A, “Alkylaminodesoxy-1.4;3.6-dianhydrohexitol nitrates substituted by purine bases and pharmaceutical compositions” (priority 1980, dated 1985)

Tested on: mongrel dogs
Assay: circulatory pharmacological effectiveness on narcotised dogs, intravenous
Type: in vivo, dog
Conditions: dog i.v. ISDN/9c 1, 1d 0.5 mg/kg

SMILES: Cn1c(=O)c2c(ncn2CCCN[C@H]2CO[C@H]3[C@@H]2OC[C@@H]3O[N+](=O)[O-])n(C)c1=O [Example 1d, 5-(3-Theophyllin-7-ylpropyl)-amino-5-desoxy-1.4;3.6-dianhydro-L-iditol 2-nitrate]
- APdiast: diastolic aorta pressure (2 min): 67.5 mm.Hg
- APsyst: systolic aorta pressure (2 min): 107.8 mm.Hg
- BFFem: blood flow in the A. femoralis referred to 20 kg body weight (2 min): 42.6 mL/min
- HF: heart frequency (2 min): 145.7
- HLL: heart capacity left, referred to 20 kg body weight (2 min): 0.51 W
- HLR: heart capacity right, referred to 20 kg body weight (2 min): 70.9 mW
- HZV: heart minute volume, referred to 20 kg body weight (2 min): 2.94 L/min
- LVEDP: end diastolic pressure in the left ventricle (2 min): 3.85 mm.Hg
- SV: beat volume, referred to 20 kg body weight (2 min): 21.9 mL
- WAP: pulmonalis resistance, referred to 20 kg body weight (2 min): 0.35 U
- WFem: moralis resistance, referred to 20 kg body weight (2 min): 0.28 KU
- WTP: total peripheral resistance, referred to 20 kg body weight (2 min): 3.73 U
- dp/dt: rate of pressure increase in the left ventricle (2 min): 2915.6 mm.Hg/sec
- APdiast: diastolic aorta pressure (5 min): 77.8 mm.Hg
- APsyst: systolic aorta pressure (5 min): 119.4 mm.Hg
- BFFem: blood flow in the A. femoralis referred to 20 kg body weight (5 min): 40.8 mL/min
- HF: heart frequency (5 min): 131.2
- HLL: heart capacity left, referred to 20 kg body weight (5 min): 0.47 W
- HLR: heart capacity right, referred to 20 kg body weight (5 min): 58.2 mW
- HZV: heart minute volume, referred to 20 kg body weight (5 min): 2.40 L/min
- LVEDP: end diastolic pressure in the left ventricle (5 min): 4.78 mm.Hg
- SV: beat volume, referred to 20 kg body weight (5 min): 19.6 mL
- WAP: pulmonalis resistance, referred to 20 kg body weight (5 min): 0.38 U
- WFem: moralis resistance, referred to 20 kg body weight (5 min): 0.32 KU
- WTP: total peripheral resistance, referred to 20 kg body weight (5 min): 5.16 U
- dp/dt: rate of pressure increase in the left ventricle (5 min): 2671.9 mm.Hg/sec
- APdiast: diastolic aorta pressure (7 min): 75.9 mm.Hg
- APsyst: systolic aorta pressure (7 min): 122.8 mm.Hg
- BFFem: blood flow in the A. femoralis referred to 20 kg body weight (7 min): 42.7 mL/min
- HF: heart frequency (7 min): 119.5
- HLL: heart capacity left, referred to 20 kg body weight (7 min): 0.47 W
- HLR: heart capacity right, referred to 20 kg body weight (7 min): 56.8 mW
- HZV: heart minute volume, referred to 20 kg body weight (7 min): 2.40 L/min
- LVEDP: end diastolic pressure in the left ventricle (7 min): 5.16 mm.Hg
- SV: beat volume, referred to 20 kg body weight (7 min): 21.3 mL
- WAP: pulmonalis resistance, referred to 20 kg body weight (7 min): 0.37 U
- WFem: moralis resistance, referred to 20 kg body weight (7 min): 0.30 KU
- WTP: total peripheral resistance, referred to 20 kg body weight (7 min): 5.10 U
- dp/dt: rate of pressure increase in the left ventricle (7 min): 2662.5 mm.Hg/sec
- APdiast: diastolic aorta pressure (10 min): 74.6 mm.Hg
- APsyst: systolic aorta pressure (10 min): 124.7 mm.Hg
- BFFem: blood flow in the A. femoralis referred to 20 kg body weight (10 min): 46.2 mL/min
- HF: heart frequency (10 min): 110.2
- HLL: heart capacity left, referred to 20 kg body weight (10 min): 0.47 W
- HLR: heart capacity right, referred to 20 kg body weight (10 min): 57.1 mW
- HZV: heart minute volume, referred to 20 kg body weight (10 min): 2.38 L/min
- LVEDP: end diastolic pressure in the left ventricle (10 min): 4.69 mm.Hg
- SV: beat volume, referred to 20 kg body weight (10 min): 22.9 mL
- WAP: pulmonalis resistance, referred to 20 kg body weight (10 min): 0.41 U
- WFem: moralis resistance, referred to 20 kg body weight (10 min): 0.28 KU
- WTP: total peripheral resistance, referred to 20 kg body weight (10 min): 5.10 U
- dp/dt: rate of pressure increase in the left ventricle (10 min): 2465.6 mm.Hg/sec
- APdiast: diastolic aorta pressure (15 min): 75.9 mm.Hg
- APsyst: systolic aorta pressure (15 min): 126.0 mm.Hg
- BFFem: blood flow in the A. femoralis referred to 20 kg body weight (15 min): 48.3 mL/min
- HF: heart frequency (15 min): 107.7
- HLL: heart capacity left, referred to 20 kg body weight (15 min): 0.44 W
- HLR: heart capacity right, referred to 20 kg body weight (15 min): 53.8 mW
- HZV: heart minute volume, referred to 20 kg body weight (15 min): 2.26 L/min
- SV: beat volume, referred to 20 kg body weight (15 min): 22.0 mL
- WAP: pulmonalis resistance, referred to 20 kg body weight (15 min): 0.43 U
- WFem: moralis resistance, referred to 20 kg body weight (15 min): 0.28 KU
- WTP: total peripheral resistance, referred to 20 kg body weight (15 min): 5.51 U
- dp/dt: rate of pressure increase in the left ventricle (15 min): 2465.6 mm.Hg/sec
- APdiast: diastolic aorta pressure (20 min): 78.7 mm.Hg
- APsyst: systolic aorta pressure (20 min): 127.9 mm.Hg
- BFFem: blood flow in the A. femoralis referred to 20 kg body weight (20 min): 51.5 mL/min
- HF: heart frequency (20 min): 104.0
- HLL: heart capacity left, referred to 20 kg body weight (20 min): 0.45 W
- HLR: heart capacity right, referred to 20 kg body weight (20 min): 52.8 mW
- HZV: heart minute volume, referred to 20 kg body weight (20 min): 2.24 L/min
- LVEDP: end diastolic pressure in the left ventricle (20 min): 5.62 mm.Hg
- SV: beat volume, referred to 20 kg body weight (20 min): 22.3 mL
- WAP: pulmonalis resistance, referred to 20 kg body weight (20 min): 0.41 U
- WFem: moralis resistance, referred to 20 kg body weight (20 min): 0.27 KU
- WTP: total peripheral resistance, referred to 20 kg body weight (20 min): 5.71 U
- dp/dt: rate of pressure increase in the left ventricle (20 min): 2428.1 mm.Hg/sec
- APdiast: diastolic aorta pressure (25 min): 79.7 mm.Hg
- APsyst: systolic aorta pressure (25 min): 127.5 mm.Hg
- BFFem: blood flow in the A. femoralis referred to 20 kg body weight (25 min): 52.9 mL/min
- HLL: heart capacity left, referred to 20 kg body weight (25 min): 0.45 W
- HLR: heart capacity right, referred to 20 kg body weight (25 min): 50.9 mW
- HZV: heart minute volume, referred to 20 kg body weight (25 min): 2.24 L/min
- LVEDP: end diastolic pressure in the left ventricle (25 min): 5.44 mm.Hg
- SV: beat volume, referred to 20 kg body weight (25 min): 22.3 mL
- WAP: pulmonalis resistance, referred to 20 kg body weight (25 min): 0.44 U
- WFem: moralis resistance, referred to 20 kg body weight (25 min): 0.27 KU
- WTP: total peripheral resistance, referred to 20 kg body weight (25 min): 5.78 U
- dp/dt: rate of pressure increase in the left ventricle (25 min): 2353.1 mm.Hg/sec
- APdiast: diastolic aorta pressure (30 min): 81.6 mm.Hg
- APsyst: systolic aorta pressure (30 min): 130.9 mm.Hg
- BFFem: blood flow in the A. femoralis referred to 20 kg body weight (30 min): 54.1 mL/min
- HF: heart frequency (30 min): 101.2
- HLL: heart capacity left, referred to 20 kg body weight (30 min): 0.45 W
- HLR: heart capacity right, referred to 20 kg body weight (30 min): 50.5 mW
- HZV: heart minute volume, referred to 20 kg body weight (30 min): 2.18 L/min
- LVEDP: end diastolic pressure in the left ventricle (30 min): 5.72 mm.Hg
- SV: beat volume, referred to 20 kg body weight (30 min): 22.1 mL
- WAP: pulmonalis resistance, referred to 20 kg body weight (30 min): 0.45 U
- WFem: moralis resistance, referred to 20 kg body weight (30 min): 0.26 KU
- WTP: total peripheral resistance, referred to 20 kg body weight (30 min): 6.10 U
- APdiast: diastolic aorta pressure (40 min): 83.4 mm.Hg
- APsyst: systolic aorta pressure (40 min): 133.1 mm.Hg
